The source of these data is patent US6476018B1, “Fused imidazole derivatives as multidrug resistance modulators” (Janssen Pharmaceutica N.V., priority 1996, dated 2002).

The subject of the assay is P388/ADR (adriamycine resistance cell line) murine leukemia. In words: MDR in vivo test: reversal of adriamycine resistance in P388/ADR murine leukemia (survival). The conditions noted are these: P388/ADR mice, daily i.p. day 1-10. The protocol: Male B6D2F1 mice (18-21 g) were injected intraperitoneally with 1×10^5 P388/ADR cells at day 0. Daily intraperitoneal treatment with adriamycine, a test compound of formula (I) or a combination of both was installed from day 1 until day 10. Control animals received the vehicle (15% 4-OH-propyl-β-cyclodextrine in saline). Each group consisted of 8 animals. Adriamycine was dosed at a concentration of 1.25 mg/kg body weight, half the maximal tolerable dose of adriamycine in this treatment schedule. The test compound was dosed at 20, 10, 5, 2.5, 1.25 and 0.63 mg/kg either as single treatment or combined with adriamycine.
Survival of the animals was recorded each day and expressed as a percentage of the median survival in the treated groups compared to the median survival in the control group, the latter to be said to be 100%.
Table C-1 lists the effect of compound 6 and adriamycine on the survival of mice injected with P388/ADR leukemia.
doses of compound 6 and adriamycine are expressed as mg/kg body weight.
the column “Survival Days” give the median day of death after inoculation of 1×10^5 P388/ADR cells at day 0, with the minimum and maximum number of days shown in parantheses
column “% Change vs. ADR” give the difference in MST % of the different groups compared to the MST % in the adriamycine-monotherapy group.

The structures appear in SMILES notation.

In the case of `COc1cccc2c1C(=O)c1c(O)c3c(c(O)c1C2=O)C[C@@](O)(C(=O)CO)C[C@@H]3O[C@H]1C[C@H](N)[C@H](O)[C@H](C)O1` [Adriamycine, adriamycine, reference compound], under “compound 6 0 mg/kg, adriamycine 1.25 mg/kg”, the “Survival Days med (min-max)” value was 13 (12-15) days.
`COC(=O)c1cnc2n1CCc1ccccc1C2=C1CCN(CCc2ccc(OCc3ccc4ccccc4n3)cc2)CC1` [Compound 6, methyl 6,11-dihydro-11-[1-[2-[4-(2-quinolinylmethoxy)phenyl]ethyl]-4-piperidinylidene]-5H-imidazo[2,1-b][3]-benzazepine-3-carboxylate]: under “compound 6 5 mg/kg, adriamycine 0 mg/kg”, the “Survival Days med (min-max)” value was 11.5 (10-13) days. The MST % (compound 6 20 mg/kg, adriamycine 0 mg/kg, control = 100%) was found to be 1oo.
